Source: US20190225650A1, “PEPTIDOMIMETIC MACROCYCLES AND USE THEREOF IN REGULATING HIF1ALPHA” (AILERON THERAPEUTICS, INC., priority 2013, published 2019)
Bridge positions count the residues as written; N and C are the ends. Square brackets hold non-standard residues; d marks the D form. Peptide text beside a SMILES is read from it. R8 = C=CCCCCCC[C@@](C)(N)C(=O)O; S5 = C=CCCC[C@](C)(N)C(=O)O; Nle = CCCC[C@H](N)C(=O)O

Legend:
HRE-bla ME-180 cells [1] = assay: Reporter gene assay (HRE-bla ME-180 HIF reporter, GeneBLAzer); format: cell-based, human; conditions: for EC50: 24 hour normoxia
Procedure, shortened: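 A FRET β-lactamase readout of HIF transcription was used. After compound treatment in 0.3% DMSO/media under normoxic conditions, 20 μl of 6× LiveBLAzer-FRET B/G (CCF4-AM) substrate was added. Plates sat 3 hr at room temperature in the dark and were read at 409 Ex/460Em and 409Ex/530Em on a Synergy 2. Inhibition was compared against DMSO vehicle controls, with chetomin as positive control.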

HRE-bla ME-180 cells [2] = assay: Cell proliferation assay (viability, MTT, 1% FBS); format: cell-based, human
Procedure, shortened: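 ME-180 cells (2×10^4/well) in Opti-MEM with 1% FBS were pretreated 16 h under normoxia (21% O2), vehicle 0.5% DMSO final. Incubation then continued under normoxia or hypoxia (1% O2); viable cells quantified by MTT-type CellTiter 96 assay.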

[3] = molecular target: T1, flag-tagged HIF1α (AA 786-826) / His6-tagged p300 (AA 323-423) complex (Homo sapiens, UniProt Q09472); assay: HIF1α p300 displacement assay (TR FRET, +CHAPS); format: binding; conditions: read-out: IC50 (nM) (HIF1α_p300 Displacement + CHAPS)
T1 construct: His6-tagged p300 (AA 323-423); made in house; host or cells: E. coli (pETDuet vector)
Procedure, shortened: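 The co-expressed flag-HIF1α (786-826)/His6-p300 (323-423) complex, purified from E. coli with 0.1 mM ZnSO4, was used at 300 nM final with competitor peptides for 1 h at room temperature. Buffer was 150 mM NaCl, 20 mM HEPES pH 7.4, 7.5 mM CHAPS and 1 mM DTT. Anti-Flag-K (0.5 μM) and anti-His-D2 (4 nM) were then added for 2 h, and IC50s were fitted from the TR-FRET ratio.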

| EC50 (HRE-bla ME-180 cells [1]) [µM] | IC50 [3] [nM] | Compound | 18 h Avg % max inhibition at top conc (HIF Rptr-24 hrs normoxia) (μM) (HRE-bla ME-180 cells [1]) | Viability 1% FBS AVG (MTT V3-24 hr Normoxia) (μM) (HRE-bla ME-180 cells [2]) |
| --- | --- | --- | --- | --- |
| > 30 | 200 to 400 | CCCC[C@H](NC(=O)[C@H](CCC(=O)O)NC(=O)[C@]1(C)CCCC=CCCCCCC[C@@](C)(NC(=O)[C@H](CCC(=O)O)NC(=O)[C@H](CC(=O)O)NC(=O)[C@@H](NC(=O)[C@H](CC(N)=O)NC(=O)[C@@H](NC(=O)[C@]2(C)CCCC=CCCCCCC[C@@](C)(NC(=O)[C@H](CCC(=O)O)NC(=O)CNC(=O)[C@H](CCC(N)=O)NC(=O)[C@H](CC(C)C)NC(=O)[C@H](CC(C)C)NC(C)=O)C(=O)N[C@@H](CC(C)C)C(=O)N[C@@H](CC(C)C)C(=O)N[C@@H](CCCNC(=N)N)C(=O)N[C@@H](C)C(=O)N[C@@H](CC(C)C)C(=O)N[C@@H](C)C(=O)N2)C(C)C)[C@@H](C)CC)C(=O)N[C@@H](C(C)C)C(=O)N[C@@H](CC(C)C)C(=O)N[C@@H](CCCC)C(=O)N[C@@H](CO)C(=O)N[C@@H](CC(C)C)C(=O)N[C@@H](C(C)C)C(=O)N1)C(N)=O [SP-354] (Ac-LLQGE[R8]LLRALA[S5]VNIDE[R8]VL[Nle]SLV[S5]E[Nle]-NH2; staple 6-13, 19-26) | +++ (≤25 but <50: +++) | ++++ (≥30: ++++) |
| > 30 | ≤ 200 | CCCC[C@H](NC(=O)[C@H](CCC(=O)O)NC(=O)[C@]1(C)CCCC=CCCCCCC[C@@](C)(NC(=O)[C@H](CCC(=O)O)NC(=O)[C@H](C)NC(=O)[C@@H](NC(=O)[C@H](CC(N)=O)NC(=O)[C@@H](NC(=O)[C@]2(C)CCCC=CCCCCCC[C@@](C)(NC(=O)[C@H](CCC(=O)O)NC(=O)CNC(=O)[C@H](CCC(N)=O)NC(=O)[C@H](CC(C)C)NC(=O)[C@H](CC(C)C)NC(C)=O)C(=O)N[C@@H](CC(C)C)C(=O)N[C@@H](CC(C)C)C(=O)N[C@@H](CCCNC(=N)N)C(=O)N[C@@H](C)C(=O)N[C@@H](CC(C)C)C(=O)N[C@@H](CC(=O)O)C(=O)N2)C(C)C)[C@@H](C)CC)C(=O)N[C@@H](C(C)C)C(=O)N[C@@H](CC(C)C)C(=O)N[C@@H](CCCC)C(=O)N[C@@H](CO)C(=O)N[C@@H](CC(C)C)C(=O)N[C@@H](C(C)C)C(=O)N1)C(N)=O [SP-355] (Ac-LLQGE[R8]LLRALD[S5]VNIAE[R8]VL[Nle]SLV[S5]E[Nle]-NH2; staple 6-13, 19-26) | ++ (≤10 but <25: ++) | ++++ (≥30: ++++) |
| > 30 | ≤ 200 | CCCC[C@H](NC(=O)[C@H](CCC(=O)O)NC(=O)[C@]1(C)CCCC=CCCCCCC[C@@](C)(NC(=O)[C@H](CCC(=O)O)NC(=O)[C@H](CC(=O)O)NC(=O)[C@@H](NC(=O)[C@H](CC(N)=O)NC(=O)[C@@H](NC(=O)[C@]2(C)CCCC=CCCCCCC[C@@](C)(NC(=O)[C@H](CCC(=O)O)NC(=O)[C@H](C)NC(=O)[C@H](CCC(N)=O)NC(=O)[C@H](CC(C)C)NC(=O)[C@H](CC(C)C)NC(C)=O)C(=O)N[C@@H](CC(C)C)C(=O)N[C@@H](CC(C)C)C(=O)N[C@@H](CCCNC(=N)N)C(=O)N[C@@H](C)C(=O)N[C@@H](CC(C)C)C(=O)N[C@@H](CC(=O)O)C(=O)N2)C(C)C)[C@@H](C)CC)C(=O)N[C@@H](C(C)C)C(=O)N[C@@H](CC(C)C)C(=O)N[C@@H](CCCC)C(=O)N[C@@H](CO)C(=O)N[C@@H](CC(C)C)C(=O)N[C@@H](C(C)C)C(=O)N1)C(N)=O [SP-357] (Ac-LLQAE[R8]LLRALD[S5]VNIDE[R8]VL[Nle]SLV[S5]E[Nle]-NH2; staple 6-13, 19-26) | ++ (≤10 but <25: ++) | ++++ (≥30: ++++) |
| > 30 | 200 to 400 | CCCC[C@H](NC(=O)[C@H](CCC(=O)O)NC(=O)[C@]1(C)CCCC=CCCCCCC[C@@](C)(NC(=O)[C@H](CCC(=O)O)NC(=O)[C@H](CC(=O)O)NC(=O)[C@@H](NC(=O)[C@H](CC(N)=O)NC(=O)[C@@H](NC(=O)[C@]2(C)CCCC=CCCCCCC[C@@](C)(NC(=O)[C@H](CCC(=O)O)NC(C)=O)C(=O)N[C@@H](CC(C)C)C(=O)N[C@@H](CC(C)C)C(=O)N[C@@H](CCCNC(=N)N)C(=O)N[C@@H](C)C(=O)N[C@@H](CC(C)C)C(=O)N[C@@H](CC(=O)O)C(=O)N2)C(C)C)[C@@H](C)CC)C(=O)N[C@@H](C(C)C)C(=O)N[C@@H](CC(C)C)C(=O)N[C@@H](CCCC)C(=O)N[C@@H](CO)C(=O)N[C@@H](CC(C)C)C(=O)N[C@@H](C(C)C)C(=O)N1)C(N)=O [SP-358] (Ac-E[R8]LLRALD[S5]VNIDE[R8]VL[Nle]SLV[S5]E[Nle]-NH2; staple 2-9, 15-22) | + (<10: +) | ++++ (≥30: ++++) |
| > 30 | 200 to 400 | CCCC[C@H](NC(=O)[C@H](CCC(=O)O)NC(=O)[C@]1(C)CCCC=CCCCCCC[C@@](C)(NC(=O)[C@H](CCC(=O)O)NC(=O)[C@H](C)NC(=O)[C@H](C)NC(=O)[C@H](C)NC(=O)[C@H](C)NC(=O)[C@H](CCC(N)=O)NC(=O)[C@]2(C)CCCC=CCCC[C@](C)(NC(=O)[C@H](CC(C)C)NC(=O)[C@H](CCC(=O)O)NC(=O)[C@H](CCC(=O)O)NC(=O)CNC(=O)[C@H](CCC(N)=O)NC(=O)[C@H](CC(C)C)NC(=O)[C@H](CC(C)C)NC(C)=O)C(=O)N[C@@H](CCCNC(=N)N)C(=O)N[C@@H](C)C(=O)N[C@@H](CC(C)C)C(=O)N2)C(=O)N[C@@H](C(C)C)C(=O)N[C@@H](CC(C)C)C(=O)N[C@@H](CCCC)C(=O)N[C@@H](CO)C(=O)N[C@@H](CC(C)C)C(=O)N[C@@H](C(C)C)C(=O)N1)C(N)=O [SP-359] (Ac-LLQGEEL[S5]RAL[S5]QAAAAE[R8]VL[Nle]SLV[S5]E[Nle]-NH2; staple 8-12, 19-26) | +++ (≤25 but <50: +++) | ++++ (≥30: ++++) |
| > 30 | 200 to 400 | CCCC[C@H](NC(=O)[C@H](CCC(=O)O)NC(=O)[C@]1(C)CCCC=CCCCCCC[C@@](C)(NC(=O)[C@H](CCC(=O)O)NC(=O)[C@H](CC(=O)O)NC(=O)[C@@H](NC(=O)[C@H](CC(N)=O)NC(=O)[C@@H](NC(=O)[C@H](CCC(N)=O)NC(=O)[C@]2(C)CCCC=CCCC[C@](C)(NC(=O)[C@H](CC(C)C)NC(=O)[C@H](CCC(=O)O)NC(=O)[C@H](C)NC(=O)CNC(=O)[C@H](CCC(N)=O)NC(=O)[C@H](CC(C)C)NC(=O)[C@H](CC(C)C)NC(C)=O)C(=O)N[C@@H](CCCNC(=N)N)C(=O)N[C@@H](C)C(=O)N[C@@H](CC(C)C)C(=O)N2)C(C)C)[C@@H](C)CC)C(=O)N[C@@H](C(C)C)C(=O)N[C@@H](CC(C)C)C(=O)N[C@@H](CCCC)C(=O)N[C@@H](CO)C(=O)N[C@@H](CC(C)C)C(=O)N[C@@H](C(C)C)C(=O)N1)C(N)=O [SP-360] (Ac-LLQGAEL[S5]RAL[S5]QVNIDE[R8]VL[Nle]SLV[S5]E[Nle]-NH2; staple 8-12, 19-26) | ++ (≤10 but <25: ++) | ++++ (≥30: ++++) |
